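Dose response: 5 concentrations. Exposure: 48 h. Format: 96-well plates. Endpoint: linear interpolation; highest concentration if not reached. At the TGI there is no net growth.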 Where only a bound is given, the exact number is not on record here.

Test systems include HOP-18 NSCLC; DMS 273 small cell lung; XF 498 CNS; LXFL 529 NSCLC; KM20L2 colon; RXF 393 renal; SNB-78 CNS; COLO 205 colon; OVCAR-5 ovarian; M19-MEL melanoma; SK-MEL-28 melanoma; DLD-1 colon; DMS 114 small cell lung; RXF-631 renal.
What all share (assay): NCI anticancer screen, dose series, 48 h

For the compound `O=C1c2ccccc2C(=O)c2c1oc1cc(O)c(Cl)cc21`, the TGI was 6.79 µM with HOP-18 NSCLC; 10.8 µM with DMS 273 small cell lung; 20.2 µM in the assay on XF 498 CNS; > 46.3 µM with LXFL 529 NSCLC; 6.79 µM in the assay with KM20L2 colon; 24.5 µM with RXF 393 renal. Further, the TGI with SNB-78 CNS worked out at 19.5 µM; in the assay on COLO 205 colon, 3.27 µM; in the assay with OVCAR-5 ovarian, 23.9 µM; in the assay with M19-MEL melanoma, 0.445 µM; in the assay with SK-MEL-28 melanoma, 7.62 µM; in the assay with DLD-1 colon, 19.5 µM. Also, the TGI with DMS 114 small cell lung is 6.1 µM.
As for `COc1cc(C2C(C(=O)NCc3ccccc3)=C(C)NC(C)=C2C(=O)NCc2ccccc2)ccc1O`, the TGI was > 100 µM with DMS 273 small cell lung; > 100 µM in the assay on XF 498 CNS; > 100 µM with LXFL 529 NSCLC; > 100 µM in the assay on KM20L2 colon; 77.8 µM with RXF 393 renal; > 100 µM with SNB-78 CNS. The TGI in the assay with OVCAR-5 ovarian, in the assay with M19-MEL melanoma, in the assay on RXF-631 renal, in the assay with SK-MEL-28 melanoma and with DMS 114 small cell lung was > 100 µM each time.
Take `COC(=O)C(=O)C(C(=O)OC)C(=O)C(=O)Nc1cc(Cl)c(C)cc1S(=O)(=O)O` (centres undefined): the TGI with HOP-18 NSCLC, in the assay with DMS 273 small cell lung, in the assay with XF 498 CNS, in the assay with LXFL 529 NSCLC, in the assay with KM20L2 colon and with RXF 393 renal was > 100 µM each time. For the same compound, the TGI in the assay on SNB-78 CNS, in the assay on COLO 205 colon, with OVCAR-5 ovarian, in the assay on M19-MEL melanoma, with SK-MEL-28 melanoma and in the assay with DLD-1 colon was > 100 µM throughout. Moreover, the TGI in the assay with DMS 114 small cell lung was > 100 µM.
`C=CC(C)(C)NC(C(=O)N1CCC[C@H]1c1nc(-c2nc(C(=O)OCC=C(C)C)c(C)o2)c(C)o1)C(C)C` (some centres undefined): the TGI is > 91.4 µM in the assay with RXF 393 renal, > 100 µM with COLO 205 colon, > 100 µM with OVCAR-5 ovarian and > 100 µM in the assay with SK-MEL-28 melanoma.
Consider `CC(C)=CCC/C(C)=C/Cc1c2c(c3oc(-c4ccc(O)c(O)c4)c(O)c(=O)c3c1O)C=CC(C)(C)O2`, for which the TGI stood at 18.6 µM with RXF 393 renal, 5.33 µM with COLO 205 colon, 15.1 µM with OVCAR-5 ovarian and 10.8 µM in the assay with SK-MEL-28 melanoma.
The matching figures for `Nc1ccc(Oc2ccc(C34CC5C6CC7(c8ccc(Oc9ccc(N)cc9)cc8)CC5C(C3)C(C7)C6C4)cc2)cc1`: > 100 µM, > 100 µM, > 100 µM and > 100 µM.
For `CC1=CC2(C)C=C[C@@H]1C(=O)[C@@]1(C)CC[C@@](O)(C(C)C)[C@H]1CC2`, in that order: 43.5 µM, 40.2 µM, 34.6 µM and 41.7 µM.
As to `O=C1C(Cl)C(c2ccc(O)cc2)N1n1cnc2ccccc2c1=O` (centres undefined), the TGI was > 100 µM with HOP-18 NSCLC; > 100 µM in the assay with DMS 273 small cell lung; > 66.8 µM in the assay with XF 498 CNS; 39.5 µM in the assay on LXFL 529 NSCLC; > 100 µM with KM20L2 colon; 35.7 µM with RXF 393 renal. In addition, the TGI with SNB-78 CNS was > 100 µM; in the assay with COLO 205 colon, 58.4 µM; in the assay with OVCAR-5 ovarian it was > 100 µM; with M19-MEL melanoma, 46.9 µM; in the assay on SK-MEL-28 melanoma, 70.2 µM; in the assay on DLD-1 colon it was 55.3 µM. For the same compound, the TGI with DMS 114 small cell lung was > 81 µM.
Take `CC/C(Cl)=N\OC(=O)Nc1ccc(F)c(Cl)c1`: the TGI is 34.5 µM in the assay on RXF 393 renal, 8.16 µM in the assay on COLO 205 colon, 31.4 µM in the assay with OVCAR-5 ovarian and 30.1 µM in the assay on SK-MEL-28 melanoma.
For `CN1CCCS/C1=C1/SC(=S)N(c2ccccc2)C1=O`, the TGI in the assay with HOP-18 NSCLC, in the assay with DMS 273 small cell lung, with XF 498 CNS, in the assay with LXFL 529 NSCLC, in the assay on KM20L2 colon and in the assay with RXF 393 renal was > 100 µM throughout. Also, the TGI in the assay with SNB-78 CNS, in the assay on COLO 205 colon, in the assay with OVCAR-5 ovarian, in the assay with M19-MEL melanoma, in the assay on RXF-631 renal and in the assay on SK-MEL-28 melanoma was > 100 µM each time. Further, the TGI in the assay on DLD-1 colon and in the assay with DMS 114 small cell lung was > 100 µM throughout.
As to `Cc1cc(C)c(NS(=O)c2ccc(Cl)cc2)c(C)c1` (centres undefined), the TGI with RXF 393 renal, in the assay with COLO 205 colon, with OVCAR-5 ovarian and with SK-MEL-28 melanoma was > 100 µM throughout.
With `CCOC(=O)N1c2ccccc2N(C(=O)OCC)C1CC(=O)/C=C/c1ccccc1`, the TGI with RXF 393 renal amounted to 13.8 µM; with COLO 205 colon, 4.17 µM; in the assay on OVCAR-5 ovarian, 7.78 µM; with SK-MEL-28 melanoma, 28 µM.
The matching figures for `CCn1c2ccccc2c2ccc(C3C4C(=O)N(c5cccc6ccccc56)C(=O)C4ON3C(C(N)=O)c3ccccc3)cc21` (centres undefined): > 25 µM, > 25 µM, > 25 µM and > 25 µM.
The matching figures for `CCCCC/C=C\C=C\CCCCCCCCC(=O)OC`: > 100 µM, > 100 µM, > 100 µM and > 100 µM.
As to `O=C(O)C12C3CCC(C3)C1(C(=O)O)C1CCC2C1` (centres undefined), the TGI in the assay with HOP-18 NSCLC, with DMS 273 small cell lung, with XF 498 CNS, in the assay on LXFL 529 NSCLC, with KM20L2 colon and with RXF 393 renal was > 100 µM in each case. For the same compound, the TGI with SNB-78 CNS, in the assay on COLO 205 colon, in the assay with OVCAR-5 ovarian, with M19-MEL melanoma, in the assay on RXF-631 renal and in the assay with SK-MEL-28 melanoma was > 100 µM each time. Also, the TGI with DLD-1 colon is 64.1 µM; in the assay with DMS 114 small cell lung, > 100 µM.
